Measured values published in PubChem BioAssay AID248 (DTP/NCI, 2004).
Several values for one entry are separate records, joined by “and”; a condition that tells them apart may be missing. Equal values may be shown once. Inconclusive results and toxic doses are left out. Rule as the data show it: active = T/C of 150% or more; inactive = T/C below 125%.

Tested on: L1210 leukemia ip in BDF1 mice, survival T/C
Assay: NCI In Vivo Anticancer Drug Screen. Data for tumor model L1210 Leukemia (intraperitoneal) in B6D2F1 (BDF1) mice
Conditions: endpoint: mean survival time, higher = longer survival
Method in brief: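 Value reflects the ratio of survival in compound-treated mice to survival in vehicle-treated controls, with both groups carrying the same transplanted tumor.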

[1] = dose: 5.0 mg/kg/injection, schedule: Q01DX009 (ip), vehicle: saline
[2] = dose: 10.0 mg/kg/injection, schedule: Q01DX009 (ip), vehicle: saline
[3] = dose: 20.0 mg/kg/injection, schedule: Q01DX009 (ip), vehicle: saline

Measured: T/C

COC(=O)[C@@H](O)[C@](O)(CCC(C)C)C(=O)O[C@@H]1C(OC)=C[C@]23CCCN2CCc2cc4c(cc2[C@H]13)OCO4
inactive: dose: 0.12 mg/kg/injection, schedule: Q03HX024 (ip), vehicle: saline 98 % of control | dose: 0.25 mg/kg/injection, schedule: Q01DX009 (ip), vehicle: saline 108 % of control | dose: 0.25 mg/kg/injection, schedule: Q03HX008 (ip), vehicle: saline 106 % of control | dose: 0.25 mg/kg/injection, schedule: Q03HX016 (ip), vehicle: saline 101 % of control | dose: 0.25 mg/kg/injection, schedule: Q03HX024 (ip), vehicle: saline 107 % of control | dose: 0.5 mg/kg/injection, schedule: Q01DX006 (iv), vehicle: saline 100 % of control | dose: 0.5 mg/kg/injection, schedule: Q01DX009 (ip), vehicle: saline 107 % of control | dose: 0.5 mg/kg/injection, schedule: Q01DX009 (oral), vehicle: saline 103 % of control | dose: 0.5 mg/kg/injection, schedule: Q01DX009 (sc), vehicle: saline 104 % of control | dose: 0.5 mg/kg/injection, schedule: Q03HX008 (ip), vehicle: saline 104 % of control | dose: 0.5 mg/kg/injection, schedule: Q03HX016 (ip), vehicle: saline 108 % of control | dose: 0.5 mg/kg/injection, schedule: Q03HX024 (ip), vehicle: saline 100 % of control | dose: 0.93 mg/kg/injection, schedule: Q01DX009 (ip), vehicle: water 106 % of control | dose: 1.0 mg/kg/injection, schedule: Q01DX006 (iv), vehicle: saline 102 % of control | dose: 1.0 mg/kg/injection, schedule: Q01DX009 (ip), vehicle: saline 115 % of control | dose: 1.0 mg/kg/injection, schedule: Q01DX009 (oral), vehicle: saline 93 % of control | dose: 1.0 mg/kg/injection, schedule: Q01DX009 (sc), vehicle: saline 104 % of control | dose: 1.0 mg/kg/injection, schedule: Q03HX008 (ip), vehicle: saline 101 % of control and 106 % of control | dose: 1.0 mg/kg/injection, schedule: Q03HX016 (ip), vehicle: saline 101 % of control and 106 % of control | dose: 1.0 mg/kg/injection, schedule: Q03HX024 (ip), vehicle: saline 100 % of control and 114 % of control | dose: 1.0 mg/kg/injection, schedule: Q04DX003 (ip), vehicle: saline 106 % of control | dose: 1.85 mg/kg/injection, schedule: Q01DX009 (ip), vehicle: water 109 % of control | dose: 1.87 mg/kg/injection, schedule: Q01DX009 (ip), vehicle: water 109 % of control | dose: 1.88 mg/kg/injection, schedule: Q01DX009 (ip), vehicle: water 114 % of control | dose: 2.0 mg/kg/injection, schedule: Q01DX001 (ip), vehicle: saline 102 % of control | dose: 2.0 mg/kg/injection, schedule: Q01DX001 (iv), vehicle: saline 102 % of control | dose: 2.0 mg/kg/injection, schedule: Q01DX001 (oral), vehicle: saline 97 % of control | dose: 2.0 mg/kg/injection, schedule: Q01DX001 (sc), vehicle: saline 104 % of control | dose: 2.0 mg/kg/injection, schedule: Q01DX006 (iv), vehicle: saline 103 % of control and 108 % of control | dose: 2.0 mg/kg/injection, schedule: Q01DX009 (ip), vehicle: saline 107 % of control and 111 % of control | dose: 2.0 mg/kg/injection, schedule: Q01DX009 (oral), vehicle: saline 108 % of control | dose: 2.0 mg/kg/injection, schedule: Q01DX009 (sc), vehicle: saline 106 % of control | dose: 2.0 mg/kg/injection, schedule: Q03HX008 (ip), vehicle: saline 105 % of control and 113 % of control | dose: 2.0 mg/kg/injection, schedule: Q03HX016 (ip), vehicle: saline 96 % of control and 107 % of control | dose: 2.0 mg/kg/injection, schedule: Q03HX024 (ip), vehicle: saline 104 % of control | dose: 2.0 mg/kg/injection, schedule: Q04DX003 (ip), vehicle: saline 106 % of control | dose: 2.0 mg/kg/injection, schedule: Q08DX002 (ip), vehicle: saline 98 % of control | dose: 4.0 mg/kg/injection, schedule: Q01DX001 (ip), vehicle: saline 106 % of control | dose: 4.0 mg/kg/injection, schedule: Q01DX001 (iv), vehicle: saline 101 % of control | dose: 4.0 mg/kg/injection, schedule: Q01DX001 (oral), vehicle: saline 100 % of control | dose: 4.0 mg/kg/injection, schedule: Q01DX001 (sc), vehicle: saline 114 % of control | dose: 4.0 mg/kg/injection, schedule: Q01DX006 (iv), vehicle: saline 103 % of control and 111 % of control | dose: 4.0 mg/kg/injection, schedule: Q01DX009 (ip), vehicle: saline 116 % of control and 124 % of control | dose: 4.0 mg/kg/injection, schedule: Q01DX009 (oral), vehicle: saline 113 % of control and 114 % of control and 120 % of control | dose: 4.0 mg/kg/injection, schedule: Q01DX009 (sc), vehicle: saline 113 % of control | dose: 4.0 mg/kg/injection, schedule: Q03HX008 (ip), vehicle: saline 114 % of control | dose: 4.0 mg/kg/injection, schedule: Q03HX016 (ip), vehicle: saline 103 % of control | dose: 4.0 mg/kg/injection, schedule: Q04DX003 (ip), vehicle: saline 110 % of control and 113 % of control | dose: 4.0 mg/kg/injection, schedule: Q08DX002 (ip), vehicle: saline 108 % of control | [1] 116 % of control | dose: 8.0 mg/kg/injection, schedule: Q01DX001 (ip), vehicle: saline 104 % of control and 105 % of control | dose: 8.0 mg/kg/injection, schedule: Q01DX001 (iv), vehicle: saline 106 % of control and 115 % of control | dose: 8.0 mg/kg/injection, schedule: Q01DX001 (oral), vehicle: saline 100 % of control | dose: 8.0 mg/kg/injection, schedule: Q01DX001 (sc), vehicle: saline 110 % of control and 115 % of control | dose: 8.0 mg/kg/injection, schedule: Q01DX006 (iv), vehicle: saline 120 % of control | dose: 8.0 mg/kg/injection, schedule: Q01DX009 (oral), vehicle: saline 114 % of control | dose: 8.0 mg/kg/injection, schedule: Q01DX009 (sc), vehicle: saline 122 % of control | dose: 8.0 mg/kg/injection, schedule: Q04DX003 (ip), vehicle: saline 101 % of control and 107 % of control | dose: 8.0 mg/kg/injection, schedule: Q08DX002 (ip), vehicle: saline 110 % of control | [2] 116 % of control | dose: 16.0 mg/kg/injection, schedule: Q01DX001 (ip), vehicle: saline 108 % of control and 112 % of control | dose: 16.0 mg/kg/injection, schedule: Q01DX001 (iv), vehicle: saline 106 % of control and 107 % of control | dose: 16.0 mg/kg/injection, schedule: Q01DX001 (oral), vehicle: saline 107 % of control and 112 % of control | dose: 16.0 mg/kg/injection, schedule: Q01DX001 (sc), vehicle: saline 111 % of control and 118 % of control | dose: 16.0 mg/kg/injection, schedule: Q01DX006 (iv), vehicle: saline 122 % of control | dose: 16.0 mg/kg/injection, schedule: Q01DX009 (sc), vehicle: saline 89 % of control | dose: 16.0 mg/kg/injection, schedule: Q04DX003 (ip), vehicle: saline 100 % of control | dose: 16.0 mg/kg/injection, schedule: Q08DX002 (ip), vehicle: saline 106 % of control and 111 % of control | [3] 115 % of control | dose: 32.0 mg/kg/injection, schedule: Q01DX001 (ip), vehicle: saline 110 % of control | dose: 32.0 mg/kg/injection, schedule: Q01DX001 (oral), vehicle: saline 108 % of control and 118 % of control | dose: 32.0 mg/kg/injection, schedule: Q04DX003 (ip), vehicle: saline 107 % of control | dose: 32.0 mg/kg/injection, schedule: Q08DX002 (ip), vehicle: saline 102 % of control

CCCCCCCCCCCCCCC[n+]1cccc(C#N)c1
inactive: [1] 104 % of control | dose: 10.0 mg/kg/injection, schedule: Q01DX001 (ip), vehicle: saline 87 % of control | [2] 96 % of control | dose: 10.0 mg/kg/injection, schedule: Q04DX003 (ip), vehicle: saline 90 % of control | dose: 20.0 mg/kg/injection, schedule: Q01DX001 (ip), vehicle: saline 95 % of control and 86 % of control | [3] 107 % of control | dose: 20.0 mg/kg/injection, schedule: Q04DX003 (ip), vehicle: saline 95 % of control | dose: 40.0 mg/kg/injection, schedule: Q01DX001 (ip), vehicle: saline 101 % of control and 90 % of control | dose: 40.0 mg/kg/injection, schedule: Q04DX003 (ip), vehicle: saline 94 % of control

CCCCOC1OCN(C(C)(C)C)CC1(C)C (stereo not drawn)
inactive: dose: 100.0 mg/kg/injection, schedule: Q04DX002 (ip), vehicle: saline 104 % of control | dose: 200.0 mg/kg/injection, schedule: Q04DX002 (ip), vehicle: saline 112 % of control | dose: 400.0 mg/kg/injection, schedule: Q04DX002 (ip), vehicle: saline 101 % of control

c1ccc([P+](c2ccccc2)(c2ccccc2)c2ccc([P+](c3ccccc3)(c3ccccc3)c3ccccc3)cc2)cc1
inactive: dose: 3.13 mg/kg/injection, schedule: Q04DX003 (ip), vehicle: saline 106 % of control | dose: 6.25 mg/kg/injection, schedule: Q04DX003 (ip), vehicle: saline 109 % of control | dose: 12.5 mg/kg/injection, schedule: Q04DX003 (ip), vehicle: saline 93 % of control and 102 % of control
